Reference: US7173040B2, “Farnesyl transferase inhibiting 6-[(substituted phenyl)methyl]-quinoline and quinazoline derinazoline derivatives” (Janssen Pharmaceutica N.V., priority 2000, dated 2007)

| Structure (SMILES) | melting point [°C] |
| --- | --- |
| Cn1cnnc1C(c1ccc(Cl)cc1)c1ccc2c(c1)c(-c1cccc(Cl)c1)cc(=O)n2C (centres unmarked) [Example B7, 4-(3-chlorophenyl)-6-[(4-chlorophenyl)(4-methyl-4H-1,2,4-triazol-3-yl)methyl]-1-methyl-2(1H)-quinolinone] | 153 |
| Cl.Cn1cncc1C(O)(c1ccc(C=O)cc1)c1ccc2[nH]c(=O)cc(-c3cccc(Cl)c3)c2c1 (racemic) | > 260 |
| Cn1cnnc1C(O)(c1ccc(Cl)cc1)c1ccc2c(c1)c(-c1cccc(Cl)c1)cc(=O)n2Cc1ccc(C#N)cc1 (centres unmarked) [Example B33, 4-[[4-(3-chlorophenyl)-6-[(4-chlorophenyl)hydroxy(4-methyl-4H-1,2,4-triazol-3-yl)methyl]-2-oxo-1(2H)-quinolinyl]methyl]-benzonitrile] | 185 |
| Cn1cnnc1C(N)(c1ccc(Cl)cc1)c1ccc2c(c1)c(-c1cccc(Cl)c1)cc(=O)n2C (centres unmarked) [Example B22b, 6-[amino(4-chlorophenyl)(4-methyl-4H-1,2,4-triazol-3-yl)methyl]-4-(3-chlorophenyl)-1-methyl-2(1H)-quinolinone] | 210 |
| Cn1cncc1C(O)(c1ccc(-c2ccc(Cl)cc2)cc1)c1ccc2c(c1)c(-c1cccc(Cl)c1)cc(=O)n2C (racemic) [Example B10, (±)-6-[(4′-chloro[1,1′-biphenyl]-4-yl)hydroxy(1-methyl-1H-imidazol-5-yl)methyl]-4-(3-chlorophenyl)-1-methyl-2(1H)-quinolinone] | 236 |
| Cn1cnnc1C(O)(c1ccc(Cl)cc1)c1ccc2c(c1)c(-c1cccc(Cl)c1)cc(=O)n2C (centres unmarked) [Example B13, 4-(3-chlorophenyl)-6-[(4-chlorophenyl)hydroxy(4-methyl-4H-1,2,4-triazol-3-yl)methyl]-1-methyl-2(1H)-quinolinone] | 182 |
| Cl.Cn1cncc1C(O)(c1ccc(C(=O)O)cc1)c1ccc2[nH]c(=O)cc(-c3cccc(Cl)c3)c2c1.O (racemic) (hydrate or solvate) | > 300 |
| CSc1nnc(C(N)(c2ccc(Cl)cc2)c2ccc3c(c2)c(-c2cccc(Cl)c2)nc2nnnn23)n1C (stereo not drawn) [Example B28d, 5-(3-chlorophenyl)-α-(4-chlorophenyl)-α-[4-methyl-5-(methylthio)-4H-1,2,4-triazol-3-yl]-tetrazolo[1,5-a]quinazoline-7-methanamine] | 150 |
| Cn1cnnc1C(CCl)(c1ccc(Cl)cc1)c1ccc2c(c1)c(-c1cccc(Cl)c1)cc(=O)n2C (centres unmarked) [Example B31, 6-[2-chloro-1-(4-chlorophenyl)-1-(4-methyl-4H-1,2,4-triazol-3-yl)ethyl]-4-(3-chlorophenyl)-1-methyl-2(1H)-quinolinone] | 260 |
| Cn1cnnc1C(c1ccc(I)cc1)c1ccc2c(c1)c(-c1cccc(Cl)c1)nc1nnnn12 (centres unmarked) [Example B26b, tetrazolo[1,5-a]quinazoline, 5-(3-chlorophenyl)-7-[(4-iodophenyl)(4methyl-4H-1,2,4-triazol-3-yl)methyl]-] | 150 |
| Cn1cnnc1C(O)(c1ccc(Cl)cc1)c1ccc2[nH]c(=O)cc(-c3cccc(Cl)c3)c2c1 (centres unmarked) [Example B32, 4-(3-chlorophenyl)-6-[(4-chlorophenyl)hydroxy(4-methyl-4H-1,2,4-triazol-3-yl)methyl]-2(1H)-quinolinone] | > 260 |
| Cn1cncc1C(O)(c1ccc(C(=O)O)cc1)c1ccc2c(c1)c(-c1cccc(Cl)c1)cc(=O)n2C (racemic) [Example B19, (±)-4-[[4-(3-chlorophenyl)-1,2-dihydro-1-methyl-2-oxo-6-quinolinyl]hydroxy(1-methyl-1H-imidazol-5-yl)methyl]benzoic acid] | > 260 |
| Cn1cnnc1C(N)(c1ccc(I)cc1)c1ccc2c(c1)c(-c1cccc(Cl)c1)nc1nnnn12 (stereo not drawn) [Example B29c, 5-(3-chlorophenyl)-α-(4-iodophenyl)-α-(4-methyl-4H-1,2,4-triazol-3-yl)-tetrazolo[1,5-a]quinazoline-7-methanamine] | 238 |
| Cn1cncc1C(O)(c1ccc2c(c1)OCCO2)c1ccc2[nH]c(=O)nc(-c3cccc(Cl)c3)c2c1 (centres unmarked) [Example B30, 4-(3-chlorophenyl)-6-[(2,3-dihydro-1,4-benzodioxin-6-yl)hydroxy(1-methyl-1H-imidazol-5-yl)methyl]-2(1H)-quinazolinone] | > 260 |
| CC(O)c1ccc(C(O)(c2ccc3c(c2)c(-c2cccc(Cl)c2)cc(=O)n3C)c2cncn2C)cc1 (racemic) [Example B17, (±)-4-(3-chlorophenyl)-6-[hydroxy[4-(1-hydroxyethyl)phenyl](1-methyl-1H-imidazol-5-yl)methyl]-1-methyl-2(1H)-quinolinone] | 181 |
| CSc1nnc(C(O)(c2ccc(Cl)cc2)c2ccc3c(c2)c(-c2cccc(Cl)c2)nc2nnnn23)n1C (stereo not drawn) [Example B28b, 5-(3-chlorophenyl)-α-(4-chlorophenyl)-α-[4-methyl-5-(methylthio)-4H-1,2,4-triazol-3-yl]-tetrazolo[1,5-a]quinazoline-7-methanol] | 65 |
| Cn1cnnc1C(N)(c1ccc(C#N)cc1)c1ccc2c(c1)c(-c1cccc(Cl)c1)nc1nnnn12 (centres unmarked) [Example B29d, 4-[amino[5-(3-chlorophenyl)tetrazolo[1,5-a]quinazolin-7-yl](4-methyl-4H-1,2,4-triazol-3-yl)methyl]-benzonitrile] | 194 |
| Cn1cnnc1C(c1ccc(Cl)cc1)c1ccc2c(c1)c(-c1cccc(Cl)c1)nc1nnnn12 (centres unmarked) [Example B20, 5-(3-chlorophenyl)-7-[(4-chlorophenyl)(4methyl-4H-1,2,4-triazol-3-yl)methyl]-tetrazolo[1,5-a]quinazoline] | 217 |
| Cn1cncc1C(N)(c1ccc([N+](=O)[O-])cc1)c1ccc2c(c1)c(-c1cccc(Cl)c1)cc(=O)n2C (racemic) [Example B8b, (±)-6-[amino(1-methyl-1H-imidazol-5-yl)(4-nitrophenyl)methyl]-4-(3-chlorophenyl)-1-methyl-2(1H)-quinolinone] | 258 |
| Cn1cncc1C(O)(c1ccc([N+](=O)[O-])cc1)c1ccc2c(c1)c(-c1cccc(Cl)c1)cc(=O)n2C (racemic) [Example B4, (±)-4-(3-chlorophenyl)-6-[hydroxy(1-methyl-1H-imidazol-5-yl)(4-nitrophenyl)methyl]-1-methyl-2(1H)-quinolinone] | 230 |
| Cn1cnnc1C(C)(c1ccc(Cl)cc1)c1ccc2c(c1)c(-c1cccc(Cl)c1)cc(=O)n2C.O=C(O)C(=O)O (centres unmarked) [Example B34, 4-(3-chlorophenyl)-6-[1-(4-chlorophenyl)-1-(4-methyl-4H-1,2,4-triazol-3-yl)ethyl]-1-methyl-2(1H)-quinolinone ethanedioate (1:1)] | 130 |
| Cn1cncc1C(O)(c1ccc(C=O)cc1)c1ccc2c(c1)c(-c1cccc(Cl)c1)cc(=O)n2C (racemic) [Example B6, (±)-4-[[4-(3-chlorophenyl)-1,2-dihydro-1-methyl-2-oxo-6-quinolinyl]hydroxy(1-methyl-1H-imidazol-5-yl)methyl]benzaldehyde] | 208 |

Now from value to molecule:

| melting point [°C] | Structure (SMILES) |
| --- | --- |
| 210 | Cn1cncc1C(O)(c1ccc(C#N)cc1)c1ccc2c(c1)c(-c1cccc(Cl)c1)cc(=O)n2C (racemic) [Example B41b, (±)-4-[[4-(3-chlorophenyl)-1,2-dihydro-1-methyl-2-oxo-6-quinolinyl]hydroxy(1-methyl-1H-imidazol-5yl)methyl]benzonitrile] |
| 150 | Cn1cncc1C(O)(c1cccc(CO)c1)c1ccc2c(c1)c(-c1cccc(Cl)c1)cc(=O)n2C (centres unmarked) [Example B45b, 4-(3-chlorophenyl)-6-[hydroxy[3-(hydroxymethyl)phenyl](1-methyl-1H-imidazol-5-yl)methyl]-1-methyl-2(1H)-quinolinone] |
| 220 | CCOC(=O)c1cn2c(cc(-c3cccc(Cl)c3)c3cc(C(c4ccc(Cl)cc4)c4nncn4C)ccc32)n1 (centres unmarked) [Example B35, ethyl 5-(3-chlorophenyl)-7-[(4-chlorophenyl)(4-methyl-4H-1,2,4-triazol-3-yl)methyl]-imidazo[1,2-a]quinoline-2-carboxylate] |
| 170 | Cn1cncc1C(O)(c1ccc(C=O)cc1)c1ccc2c(c1)c(-c1cccc(Cl)c1)nc1nnnn12 (centres unmarked) [Example B38, 4-[[5-(3-chlorophenyl)tetrazolo[1,5-a]quinazolin-7-yl]hydroxy(1-methyl-1H-imidazol-5-yl)methyl]-benzaldehyde] |
| 150 | Cn1cncc1C(N)(c1ccc(CN)cc1)c1ccc2c(c1)c(-c1cccc(Cl)c1)cc(=O)n2C (centres unmarked) [Example B41e, 6-[amino[4-(aminomethyl)phenyl](1-methyl-1H-imidazol-5-yl)methyl]-4-(3-chlorophenyl)-1-methyl-2(1H)-quinolinone] |
| 150 | CC(C)OC(=O)c1cccc(C(O)(c2ccc3c(c2)c(-c2cccc(Cl)c2)cc(=O)n3C)c2cncn2C)c1 (centres unmarked) [Example B45a, 1-methylethyl 3-[[4-(3-chlorophenyl)-1,2-dihydro-1-methyl-2-oxo-6-quinolinyl]hydroxy(1-methyl-1H-imidazol-5-yl)methyl]-benzoate] |
| 245 | Cn1cncc1C(N)(c1ccc(C#N)cc1)c1ccc2c(c1)c(-c1cccc(Cl)c1)cc(=O)n2C (centres unmarked) [Example B41d, 4-[amino[4-(3-chlorophenyl)-1,2-dihydro-1-methyl-2-oxo-6quinolinyl](1-methyl-1H-imidazol-5-yl)methyl]-benzonitrile] |
| 262 | Cn1c(=O)cc(-c2cccc(Cl)c2)c2cc(C(O)(c3ccc(Cl)cc3)c3cnccc3N)ccc21 (centres unmarked) [Example B42, 6-[(4amino-3-pyridinyl)(4-chlorophenyl)hydroxymethyl]-4-(3-chlorophenyl)-1-methyl-2(1H)-quinolinone] |
| 178 | Cn1c(=O)cc(-c2cccc(Cl)c2)c2cc(C(O)(c3ccc(Cl)cc3)c3cnccc3Cl)ccc21 (centres unmarked) [Example B39, 4-(3-chlorophenyl)-6-[(4-chlorophenyl)(4-chloro-3-pyridinyl)hydroxymethyl]-1-methyl-2(1H)-quinolinone] |
| 180 | Cn1c(=O)cc(-c2cccc(Cl)c2)c2cc(C(N)(c3ccc(Cl)cc3)c3cnccc3Cl)ccc21 (centres unmarked) [Example B40b, 6-[amino(4-chlorophenyl)(4-chloro-3-pyridinyl)methyl]-4(3-chlorophenyl)-1-methyl-2(1H)-quinolinone] |
